For 20 compounds, inhibition results are on record in patent US5278186A, “Chromene derivatives, their production and use” (Takeda Chemical Industries, Ltd., priority 1990, dated 1994).

The experiment deals with T1, Acyl-CoA : cholesterol acyltransferase (ACAT) (Rattus norvegicus, UniProt Q7TQM4).
T1 construct: from the mucosal microsome fraction of the small intestine; from tissue; host or cells: small intestine mucosa (microsome fraction), Sprague-Dawley rat
T1 sequence (Q7TQM4 1-524): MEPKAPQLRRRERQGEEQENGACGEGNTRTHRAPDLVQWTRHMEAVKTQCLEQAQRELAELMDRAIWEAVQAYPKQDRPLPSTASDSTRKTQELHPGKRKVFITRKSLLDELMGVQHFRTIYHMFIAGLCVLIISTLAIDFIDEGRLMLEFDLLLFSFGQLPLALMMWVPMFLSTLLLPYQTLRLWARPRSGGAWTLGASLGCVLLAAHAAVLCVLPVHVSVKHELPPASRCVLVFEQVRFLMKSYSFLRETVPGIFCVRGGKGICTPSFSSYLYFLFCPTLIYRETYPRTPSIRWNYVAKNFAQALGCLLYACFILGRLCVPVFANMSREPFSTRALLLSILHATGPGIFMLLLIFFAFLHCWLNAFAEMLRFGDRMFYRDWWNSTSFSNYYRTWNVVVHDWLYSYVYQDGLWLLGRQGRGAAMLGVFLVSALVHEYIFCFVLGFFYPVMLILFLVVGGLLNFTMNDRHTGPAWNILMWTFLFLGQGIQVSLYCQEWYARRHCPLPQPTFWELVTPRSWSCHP
Kind of experiment: Acyl-CoA : cholesterol acyltransferase (ACAT) inhibitory activity. Format: biochemical. Particulars: mucosal microsome fraction of small intestine of male 6-week old fasted Sprague-Dawley rats, labeled cholesterol ester from [1^14 C] oleoyl-CoA; for inhibition at 1 µM: 10^-6 M, read-out: ACAT Inhibition Rate (%) 10^-6 M; for inhibition at 0.01 µM: 10^-8 M, read-out: ACAT Inhibition Rate (%) 10^-8 M. Here is the method:
The enzyme ACAT was prepared by the method of Heider et al. described in Journal of Lipid Research, Vol. 24, page 1127 (1982), from the mucosal microsome fraction of the small intestine of male, 6-week old Sprague-Dawley rats which had been fasted for 20 hours.
ACAT activity was calculated by the method of Helgerud et al. described in Journal of Lipid Research, Vol. 22, page 271 (1981), namely, by measuring the amount of the labeled cholesterol ester produced from [1^14 C] oleoyl-CoA and endogenous cholesterol.
Inhibition rates (%) of the production of the labeled cholesterol ester wherein 10^-6 M or 10^-8 M of test compounds were added are shown as an index of ACAT inhibitory activity in Table 1.

Each structure is given as a SMILES string.

The inhibition is how much of the control response was suppressed. For the compound `Cc1cc2oc(=O)c(NC(=O)Nc3ccc(F)cc3F)c(-c3ccccc3C)c2cc1C` [Example 3, N-(2,4-difluorophenyl)-N'-[4-(2-methylphenyl)-6,7-dimethyl-2-oxo-2H-1-benzopyran-3-yl] urea], the inhibition at 1 µM came to 99.2%.
Regarding `Cc1cc2c(-c3ccccc3C)c(NC(=O)Nc3ccc(F)cc3F)c(=O)oc2cc1Cl` [Example 17, N-[7-chloro-6-methyl-4-(2-methylphenyl)-3-oxo-2H-1-benzopyran-3-yl)-N'-(2,4-difluorophenyl) urea], the inhibition at 0.01 µM came to 84.2%.
As for `Cc1cc2oc(=O)c(NC(=O)c3ccc(F)cc3F)c(-c3ccccc3C)c2cc1Cl` [Example 29, 6-chloro-3-(2,4-difluorobenzoylamino)-7-methyl-4-(2-methylphenyl)-2H-1-benzopyran-2-one], the inhibition at 1 µM turned out to be 95.4%.
As to `Cc1ccccc1-c1c(NC(=O)Nc2ccc(F)cc2F)c(=O)oc2ccc(Cl)cc12` [Example 1, N-[6-chloro-4-(2-methylphenyl)-2-oxo-2H-1-benzopyran-3-yl]-N'-(2,4-difluorophenyl) urea], the inhibition at 1 µM came out at 99%.
Still for that read-out and setting: to `Cc1ccccc1-c1c(NC(=O)Nc2ccc(F)cc2F)c(=O)oc2ccc(C(C)C)cc12` [Example 2, N-(2,4-difluorophenyl)-N'-[6-isopropyl-4-(2-methylphenyl)-2-oxo-2H-1-benzopyran-3-yl] urea] belongs 99%; to `CC(=O)Oc1c(C)cc(NC(=O)Nc2c(-c3ccccc3C)c3cc(Cl)c(C)cc3oc2=O)cc1C` [Example 27, N-(4-acetoxy-3,5-dimethylphenyl)-N'-[6-chloro-7-methyl-4-(2-methylphenyl)-2-oxo-2H-1-benzopyran-3-yl]urea], 99.1%.
As for `Cc1ccc2oc(=O)c(NC(=O)Nc3ccc(F)cc3F)c(-c3ccccc3Cl)c2c1` [Example 18, N-[4-(2-chlorophenyl)-6-methyl-2-oxo-2H-1-benzopyran-3-yl)-N'-(2,4-difluorophenyl) urea], the inhibition at 0.01 µM came to 56.1%.
Still for that read-out and setting: the value for `Cc1cc2oc(=O)c(NC(=O)Nc3ccc(F)cc3F)c(-c3ccccc3Cl)c2cc1C` [Example 11] was 86.7%.
Consider `COc1cc(C=CC(=O)Nc2c(-c3ccccc3C)c3cc(Cl)c(C)cc3oc2=O)cc(OC)c1OC(C)=O` [Example 19, 3-(4-acetoxy-3,5-dimethoxycinnamoylamino)-6-chloro-7-methyl-4-(2-methylphenyl)-2H-1-benzopyran-2-one], for which the inhibition at 1 µM amounted to 92.3%.
On to `Cc1cc2oc(=O)c(NC(=O)Nc3ccc(Cl)cc3)c(-c3ccccc3C)c2cc1C` [Example 4, N-(4-chlorophenyl)-N'-[6,7-dimethyl-4-(2-methylphenyl)-2-oxo-2-H-1-benzopyran-3-yl] urea], for which the inhibition at 0.01 µM is 69.7%.
`CC(C)c1ccc2oc(=O)c(NC(=O)Nc3ccc(F)cc3F)c(-c3ccc(F)cc3)c2c1` [Example 30, N-(2,4-difluorophenyl)-N'-[4-(4-fluorophenyl)-6-isopropyl-2-oxo-2H-1-benzopyran-3-yl] urea]: the inhibition at 1 µM was found to be 90.2%.
Still for that read-out and setting: to `Cc1cc2oc(=O)c(NC(=O)Nc3cccc(C(F)(F)F)c3)c(-c3ccccc3C)c2cc1Cl` [Example 20, N-[6-chloro-7-methyl-4-(2-methylphenyl)-2-oxo-2H-1-benzopyran-3-yl]-N'-(3-trifluoromethylphenyl) urea] belongs 84.8%; to `COc1cc(NC(=O)Nc2c(-c3ccccc3C)c3cc(Cl)c(C)cc3oc2=O)cc(OC)c1OC(C)=O` [Example 26, N-(4-acetoxy-3,5-dimethoxyphenyl)-N,-[6-chloro-7-methyl-4-(2-methylphenyl)-2-oxo-2H-1-benzopyran-3-yl]urea], 98.5%; to `COc1cc(NC(=O)Nc2c(-c3ccccc3C)c3cc(C)c(C)cc3oc2=O)cc(OC)c1OC(C)=O` [Example 25, N-(4-acetoxy-3,5-dimethoxyphenyl)-N'-[6,7-dimethyl-4-(2-methylphenyl)-2-oxo-2H-1-benzopyran-3-yl]urea], 98.8%.
In the case of `Cc1cc2oc(=O)c(NC(=O)Cc3ccc(F)cc3F)c(-c3ccccc3C)c2cc1Cl` [Example 28, 6-chloro-3-(2,4-difluorophenylacetylamino)-7-methyl-4-(2-methylphenyl)-2H-1-benzopyran-2-one], the inhibition at 0.01 µM worked out at 34.3%.
For the compound `Cc1cc2sc(=O)c(NC(=O)Nc3ccc(F)cc3F)c(-c3ccccc3C)c2cc1Cl` [Example 22, N-[6-chloro-7-methyl-4-(2-methylphenyl)-2-oxo-2H-1-thiobenzopyran-3-y-1)-N'-(2,4-difluorophenyl) urea], the inhibition at 1 µM stood at 97%.
The same measure, in the same setting: to `COc1cc(NC(=O)Nc2c(-c3ccccc3Cl)c3cc(C)ccc3oc2=O)cc(OC)c1OC(C)=O` [Example 24, N-(4-acetoxy-3,5-dimethoxyphenyl)-N'-[4-(2-chlorophenyl)-6-methyl-2-oxo-2H-1-benzopyran-3-yl] urea] belongs 98.6%.
With `CCc1ccc2oc(=O)c(NC(=O)Nc3ccc(F)cc3F)c(-c3ccccc3C)c2c1` [Example 6, N-[6-ethyl-4-(2-methylphenyl)-2-oxo-2H-1-benzopyran-3-yl]-N'-(2,4-difluorophenyl) urea], the inhibition at 0.01 µM came to 45.9%.
On the same count and under the same terms, the value for `Cc1cc2oc(=O)c(NC(=O)Nc3ccc(F)cc3F)c(-c3ccccc3C)c2cc1Cl` [Example 7, N-[6-chloro-7-methyl-4-(2-methylphenyl)-2-oxo-2H-1-benzopyran-3-yl)-N'-(2,4-difuorophenyl) urea] was 81.7%; that for `Cc1ccc2oc(=O)c(NC(=O)Nc3ccc(F)cc3F)c(-c3ccccc3C)c2c1` [Example 16, N-[2,4-difluorophenyl)-N'-[6-methyl-4-(2-methylphenyl)-2-oxo-2H-1-benzopyran-3-yl) urea] was 42.7%.
